Reference: patent publication US20260092054A1, “FUSED RING COMPOUND AND PHARMACEUTICAL CONTAINING SAME” (KAKEN PHARMACEUTICAL CO., LTD., priority 2022, published 2026)

How the values were obtained:
[1] = tested on: human STAT6; assay: Human STAT6 dependent reporter activity (IL-4 stimulated STAT6 reporter assay using STAT6-HEK293 cells); type: cell-based; conditions: Homo sapiens, IL-4 stimulation, luciferase activity, read-out: Inhibition rate (%); for inhibition at 0.1 µM: compound 0.1 μmol/L; for inhibition at 1 µM: compound 1 μmol/L
[2] = molecular target: T1, human STAT6/pIL-4Rα (Homo sapiens, UniProt P42226); assay: Binding inhibitory activity between human STAT6/pIL-4Rα by fluorescence polarization method; conditions: rhSTAT6 (123-658) / FAM-pIL-4Rα peptide
T1 construct: histidine tag
T1 sequence (P42226 123-658): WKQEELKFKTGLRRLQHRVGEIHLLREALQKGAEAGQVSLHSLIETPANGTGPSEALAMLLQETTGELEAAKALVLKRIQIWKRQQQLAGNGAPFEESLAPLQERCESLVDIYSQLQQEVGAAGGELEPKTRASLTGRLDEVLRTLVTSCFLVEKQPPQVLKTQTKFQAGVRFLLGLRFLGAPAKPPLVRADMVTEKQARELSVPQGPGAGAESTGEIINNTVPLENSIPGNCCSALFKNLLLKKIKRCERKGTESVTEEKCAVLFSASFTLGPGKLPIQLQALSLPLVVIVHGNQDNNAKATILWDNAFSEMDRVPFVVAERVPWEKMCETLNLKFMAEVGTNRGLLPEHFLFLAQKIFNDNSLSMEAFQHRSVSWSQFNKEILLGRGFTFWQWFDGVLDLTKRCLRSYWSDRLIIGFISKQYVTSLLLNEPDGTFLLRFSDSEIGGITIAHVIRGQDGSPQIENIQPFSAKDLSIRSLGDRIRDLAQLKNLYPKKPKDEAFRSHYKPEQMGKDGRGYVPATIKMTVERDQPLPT
In short: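 His-tagged human STAT6 (residues 123–658, E. coli-expressed) was preincubated with compound for 30 min at RT in the dark, in buffer e.g. 50 mM NaCl, 10 mM HEPES pH 7.0, 1 mM DTT, 1 mM EDTA, 0.01% NP-40. FAM-pIL-4Rα peptide was then added for 30 min. Fluorescence polarisation was read at 485/535 nm, with IC50 interpolated linearly between two points flanking 50%.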

| IC50 [2] | Structure (SMILES) | inhibition at 0.1 µM [1] | inhibition at 1 µM [1] |
| --- | --- | --- | --- |
| 430 nM | CCn1c(-c2ccc(-n3c(C)nn(C)c3=O)cc2)cc2cncc(C(=O)Nc3ccc(F)c(C(N)=O)c3)c21 [Ex. 216] | 7% | 42% |
| 680 nM | CCn1c(-c2ccc(N3C(=O)C(C)CC3C)cc2)nc2cc(C(F)(F)F)cc(C(=O)Nc3cccc(C(N)=O)c3F)c21 (stereo not shown) [Ex. 218] | 38% | 89% |

Second part, the molecule before the results:

| Structure (SMILES) | IC50 [2] | inhibition at 0.1 µM [1] | inhibition at 1 µM [1] |
| --- | --- | --- | --- |
| Cc1nn(C)c(=O)n1-c1ccc(-c2cc3ccnc(C(=O)Nc4cccc(C(=O)Nc5cccn(C)c5=O)c4)c3n2CC2(C#N)CC2)cc1 [Ex. 200] | 230 nM | 53% | 99% |
| CCn1c(-c2ccc(-n3c(C)nn(C)c3=O)cc2)cc2ccnc(C(=O)Nc3cccc(C(=O)Nc4ccn(C)n4)c3)c21 [Ex. 201] | 310 nM | 99% | – |
| COCCn1c(-c2ccc(-n3c(C)nn(C)c3=O)cc2)cc2ccnc(C(=O)Nc3cccc(C(=O)Nc4cc(Cl)n(C)n4)c3)c21 [Ex. 202] | 340 nM | 95% | – |
